Nine compounds from ChEMBL document CHEMBL1122204 (J Med Chem, 1982) can be followed below.

The pKa is the pH at which an ionisable group is half protonated.

The first data set is described as follows: Approximate pKa value of compound was determined. In kind it is physicochemical.
Settings: not given
For the compound `CC/C(=C(\c1ccccc1)c1ccc(OCCn2cccc2)cc1)c1ccccc1`, the “Approx. pKa” value is recorded as -3.8.

Still in this data set, the particulars now being: read-out: Approx. pKa.
With `CC/C(=C(\c1ccccc1)c1ccc(OCCCN2CCCC2)cc1)c1ccccc1`, the pKa came to 11.3.

For the compound `CC/C(=C(\c1ccccc1)c1ccc(OCCN2CCOCC2)cc1)c1ccccc1`, the pKa is 8.7.

Consider `CC/C(=C(\c1ccccc1)c1ccc(OCCN(CC)CC)cc1)c1ccccc1`, for which the pKa was 10.9.

As to `CC/C(=C(\c1ccccc1)c1ccc(OCCN2CCCCC2)cc1)c1ccccc1`, the pKa was 11.2.

For `CC/C(=C(\c1ccccc1)c1ccc(OCCN(C)C)cc1)c1ccccc1` [TAMOXIFEN], the pKa came to 10.8.

Regarding `CC/C(=C(\c1ccccc1)c1ccc(OCCN2CCCC2)cc1)c1ccccc1`, the pKa turned out to be 11.3.

With `CC/C(=C(\c1ccccc1)c1ccc(OCCN=C(N)N)cc1)c1ccccc1`, the pKa amounted to 13.7.

On to `CC/C(=C(\c1ccccc1)c1ccc(OCCN2CCN(C)CC2)cc1)c1ccccc1`, for which the pKa was found to be 9.8.
